Assay [1] relates to LTB4 synthesis in human whole blood. As to the kind of experiment: human whole blood (HWB) assay, inhibition of LTB4 production. It is filed as cell-based. Particulars: heparinized human whole blood, calcimycin 20 μM stimulation, plasma LTB4. A digest of the protocol:
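Plasma LTB4, quantified by HTRF immunoassay, is the read-out after calcimycin challenge (20 μM final, 30 min, 37 °C) of heparinized whole blood that had been pretreated with compound for 15 min at 37 °C; values given as IC50.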

Assay [2] addresses T1, human LTA4 hydrolase (Homo sapiens, UniProt P09960).
T1 sequence (P09960 1-611): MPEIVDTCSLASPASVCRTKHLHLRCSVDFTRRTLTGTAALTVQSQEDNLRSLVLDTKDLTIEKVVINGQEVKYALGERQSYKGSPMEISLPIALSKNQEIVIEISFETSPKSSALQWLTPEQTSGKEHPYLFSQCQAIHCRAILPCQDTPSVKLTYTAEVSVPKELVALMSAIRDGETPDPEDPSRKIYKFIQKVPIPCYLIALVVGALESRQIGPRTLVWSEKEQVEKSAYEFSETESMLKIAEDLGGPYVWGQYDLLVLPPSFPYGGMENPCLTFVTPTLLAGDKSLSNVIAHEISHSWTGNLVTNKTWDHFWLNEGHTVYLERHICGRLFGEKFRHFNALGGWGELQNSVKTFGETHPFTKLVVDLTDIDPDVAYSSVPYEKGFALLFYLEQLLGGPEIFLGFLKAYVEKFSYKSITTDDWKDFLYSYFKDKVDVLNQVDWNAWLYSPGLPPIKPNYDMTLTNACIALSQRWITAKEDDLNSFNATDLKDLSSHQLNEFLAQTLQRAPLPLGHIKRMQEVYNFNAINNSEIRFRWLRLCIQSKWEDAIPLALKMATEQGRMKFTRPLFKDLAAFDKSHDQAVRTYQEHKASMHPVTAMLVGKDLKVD
The experiment in a line: LTA4H Enzyme assay (peptidase, Arg-AMC cleavage). It is filed as biochemical. To be noted: LTA4H enzyme 1 nM, Arg-AMC substrate 50 μM, room temperature 1 h, fluorescence 380/460 nm. A digest of the protocol: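 Human LTA4H (1 nM final) incubated with compound and Arg-AMC (50 μM final) in 50 mM Tris-HCl pH 7.5, 100 mM KCl, 0.5% BSA, 1 h at room temperature. Product read as AMC fluorescence (ex 380/em 460 nm); IC50 reported.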

On to `O=C(CO)N1C[C@@H]2C[C@H]1CN2Cc1ccc2cc(Oc3ccc(-c4ccn[nH]4)cn3)ccc2n1` [Example 139, 2-Hydroxy-1-((1S,4S)-5-{6-[5-(2H-pyrazol-3-yl)-pyridin-2-yloxy]-quinolin-2-ylmethyl}-2,5-diaza-bicyclo[2.2.1]hept-2-yl)-ethanone], for which the IC50 in assay [1] is 200 nM; in assay [2], 0.39 nM.
Regarding `O=C(CO)N1CCCN(Cc2ccc3cc(Oc4ccc(-c5ccn[nH]5)cn4)ccc3n2)CC1` [Example 140, 2-Hydroxy-1-(4-{6-[5-(2H-pyrazol-3-yl)-pyridin-2-yloxy]-quinolin-2-ylmethyl}-[1,4]diazepan-1-yl)-ethanone], the IC50 worked out at 200 nM in assay [1] and 0.93 nM in assay [2].
The corresponding values for `CS(=O)(=O)NC1CCN(CCc2coc3cc(Oc4ccc(-c5ccn[nH]5)cn4)ccc23)CC1` [Example 141, N-[1-(2-{6-[5-(2H-Pyrazol-3-yl)-pyridin-2-yloxy]-benzofuran-3-yl}-ethyl)-piperidin-4-yl]-methanesulfonamide] are 200 nM and 0.35 nM.
For the molecule `CC(=O)N[C@@H]1C[C@H]2CC[C@@H](C1)N2CC1Cc2ccc(Oc3ccc(-c4ccn[nH]4)cc3)cc2O1` (stereo partly drawn) [Example 142, N-((exo)-8-{6-[4-(2H-Pyrazol-3-yl)-phenoxy]-2,3-dihydro-benzofuran-2-ylmethyl}-8-aza-bicyclo[3.2.1]oct-3-yl)-acetamide], the IC50 amounted to 210 nM in assay [1] and 0.25 nM in assay [2].
In the case of `CC(=O)N1CCN(CCC2COc3cc(Oc4ccc(-c5ccn[nH]5)cn4)ccc32)CC1` (stereo not shown) [Example 143, 1-[4-(2-{6-[5-(2H-Pyrazol-3-yl)-pyridin-2-yloxy]-2,3-dihydro-benzofuran-3-yl}-ethyl)-piperazin-1-yl]-ethanone], the IC50 in assay [1] amounted to 230 nM; in assay [2], 0.85 nM.
The corresponding values for `NC(=O)C1CCN(CC2Cc3ccc(Oc4ccc(-c5ccn[nH]5)cc4)cc3O2)CC1` (stereo not shown) [Example 144, 1-{6-[4-(2H-Pyrazol-3-yl)-phenoxy]-2,3-dihydro-benzofuran-2-ylmethyl}-piperidine-4-carboxylic acid amide] are 260 nM and 0.64 nM.
The corresponding values for `O=C(CO)N1C[C@H]2C[C@@H]1CN2Cc1ccc2cc(Oc3ccc(-c4ccn[nH]4)cn3)ccc2n1` [Example 145, 2-Hydroxy-1-((1R,4R)-5-{6-[5-(2H-pyrazol-3-yl)-pyridin-2-yloxy]-quinolin-2-ylmethyl}-2,5-diaza-bicyclo[2.2.1]hept-2-yl)-ethanone] are 210 nM and 0.4 nM.
The corresponding values for `O=C(CO)N1CC2CCC1CN2Cc1ccc2cc(Oc3ccc(-c4ccn[nH]4)cn3)ccc2n1` (stereo not shown) [Example 146, 2-Hydroxy-1-(5-{6-[5-(2H-pyrazol-3-yl)-pyridin-2-yloxy]-quinolin-2-ylmethyl}-2,5-diaza-bicyclo[2.2.2]oct-2-yl)-ethanone] are 160 nM and 0.37 nM.
Take `CC(=O)N1C[C@H]2C[C@@H]1CN2Cc1ccc2cc(Oc3ccc(-c4ccn[nH]4)cn3)ccc2n1` [Example 147, 1-((1R,4R)-5-{6-[5-(2H-Pyrazol-3-yl)-pyridin-2-yloxy]-quinolin-2-ylmethyl}-2,5-diaza-bicyclo[2.2.1]hept-2-yl)-ethanone]: the IC50 in assay [1] was found to be 160 nM; in assay [2] it was 0.48 nM.
On the same counts, the results for `CC(=O)N1CC2CCC1CN2Cc1ccc2cc(Oc3ccc(-c4ccn[nH]4)cn3)ccc2n1` (stereo not shown) [Example 148, 1-(5-{6-[5-(2H-Pyrazol-3-yl)-pyridin-2-yloxy]-quinolin-2-ylmethyl}-2,5-diaza-bicyclo[2.2.2]oct-2-yl)-ethanone] are 150 nM and 0.46 nM.
The corresponding values for `CC(=O)N1CCN(Cc2coc3cc(Oc4ccc(-c5ccn[nH]5)cn4)ccc23)CC1` [Example 149, 1-(4-{6-[5-(2H-Pyrazol-3-yl)-pyridin-2-yloxy]-benzofuran-3-ylmethyl}-piperazin-1-yl)-ethanone] are 250 nM and 1.2 nM.
In the case of `COC(=O)c1ccc(CN2C[C@@H]3C[C@H]2CN3Cc2nc3cc(Oc4ccc(-c5ccn[nH]5)cc4)ccc3[nH]2)cc1` [Example 150, 4-((1S,4S)-5-{5-[4-(2H-Pyrazol-3-yl)-phenoxy]-1H-benzoimidazol-2-ylmethyl}-2,5-diaza-bicyclo[2.2.1]hept-2-ylmethyl)-benzoic acid methyl ester], the figures for the IC50 in assay [1] and in assay [2] were 300 nM and 0.32 nM, respectively.
On the same counts, the results for `COC(=O)c1ccc(C2CCN(Cc3nc4cc(Oc5ccc(-c6ccn[nH]6)cc5)ccc4[nH]3)CC2)cc1` [Example 151, 4-(1-{5-[4-(2H-Pyrazol-3-yl)-phenoxy]-1H-benzoimidazol-2-ylmethyl}-piperidin-4-yl)-benzoic acid methyl ester] are 310 nM and 0.4 nM.
The corresponding values for `CCN(CC)Cc1nc2cc(Oc3ccc(-c4ccn[nH]4)cc3)ccc2[nH]1` [Example 152, Diethyl-{5-[4-(2H-pyrazol-3-yl)-phenoxy]-1H-benzoimidazol-2-ylmethyl}-amine] are 71 nM and 0.1 nM.
For the molecule `CC1CCN(Cc2nc3cc(Oc4ccc(-c5ccn[nH]5)cc4)ccc3[nH]2)CC1` [Example 153, 2-(4-Methyl-piperidin-1-ylmethyl)-5-[4-(2H-pyrazol-3-yl)-phenoxy]-1H-benzoimidazole], the IC50 in assay [1] came out at 89 nM; in assay [2], 0.17 nM.
As to `CCN(C)CCn1cc2cc(Oc3ccc(-c4ccn[nH]4)cc3)ccc2n1` [Example 154, Ethyl-methyl-(2-{5-[4-(2H-pyrazol-3-yl)-phenoxy]-indazol-2-yl}-ethyl)-amine], the IC50 in assay [1] worked out at 95 nM; in assay [2], 0.19 nM.
On the same counts, the results for `CCN(CCOC)Cc1nc2cc(Oc3ccc(-c4ccn[nH]4)cc3)ccc2[nH]1` [Example 155, Ethyl-(2-methoxy-ethyl)-{5-[4-(2H-pyrazol-3-yl)-phenoxy]-1H-benzoimidazol-2-ylmethyl}-amine] are 95 nM and 0.18 nM.
On to `COCC1CCCN(Cc2nc3cc(Oc4ccc(-c5ccn[nH]5)cc4)ccc3[nH]2)C1` (stereo not shown) [Example 156, 2-(3-Methoxymethyl-piperidin-1-ylmethyl)-5-[4-(2H-pyrazol-3-yl)-phenoxy]-1H-benzoimidazole], for which the half-inhibitory concentration (IC50) in assay [1] is 95 nM; in assay [2], 0.22 nM.
The corresponding values for `COC1CCN(Cc2nc3cc(Oc4ccc(-c5ccn[nH]5)cc4)ccc3[nH]2)C1` (stereo not shown) [Example 157, 2-(3-Methoxy-pyrrolidin-1-ylmethyl)-5-[4-(2H-pyrazol-3-yl)-phenoxy]-1H-benzoimidazole] are 98 nM and 0.11 nM.
On the same counts, the results for `CN(C)CCn1cc2cc(Oc3ccc(-c4ccn[nH]4)cc3)ccc2n1` [Example 158, Dimethyl-(2-{5-[4-(2H-pyrazol-3-yl)-phenoxy]-indazol-2-yl}-ethyl)-amine] are 110 nM and 0.28 nM.
On the same counts, the results for `CN(Cc1nc2cc(Oc3ccc(-c4ccn[nH]4)cc3)ccc2[nH]1)CC1CCOCC1` [Example 159, Methyl-{5-[4-(2H-pyrazol-3-yl)-phenoxy]-1H-benzoimidazol-2-ylmethyl}-(tetrahydro-pyran-4-ylmethyl)-amine] are 110 nM and 0.19 nM.
In the case of `CC[C@H](C)NCc1nc2cc(Oc3ccc(-c4ccn[nH]4)cc3)ccc2[nH]1` [Example 161, ((S)-sec-Butyl)-{5-[4-(2H-pyrazol-3-yl)-phenoxy]-1H-benzoimidazol-2-ylmethyl}-amine], the IC50 was 120 nM in assay [1] and 0.14 nM in assay [2].
On the same counts, the results for `CN(C)CCn1ncc2cc(Oc3ccc(-c4ccn[nH]4)cc3)ccc21` [Example 162, Dimethyl-(2-{5-[4-(2H-pyrazol-3-yl)-phenoxy]-indazol-1-yl}-ethyl)-amine] are 120 nM and 0.61 nM.
Turning to `c1cc(-c2ccc(Oc3ccc4[nH]c(CN5CCCCCC5)nc4c3)cc2)[nH]n1` [Example 163, 2-Azepan-1-ylmethyl-5-[4-(2H-pyrazol-3-yl)-phenoxy]-1H-benzoimidazole], the concentration for half-maximal inhibition (IC50) in assay [1] came to 120 nM; in assay [2], 0.065 nM.
The corresponding values for `CN(Cc1nc2cc(Oc3ccc(-c4ccn[nH]4)cc3)ccc2[nH]1)C1CCCC1` [Example 164, Cyclopentyl-methyl-{5-[4-(2H-pyrazol-3-yl)-phenoxy]-1H-benzoimidazol-2-ylmethyl}-amine] are 120 nM and 0.14 nM.
On the same counts, the results for `C[C@@H]1CCCCN1Cc1nc2cc(Oc3ccc(-c4ccn[nH]4)cc3)ccc2[nH]1` [Example 165, 2-((R)-2-Methyl-piperidin-1-ylmethyl)-5-[4-(2H-pyrazol-3-yl)-phenoxy]-1H-benzoimidazole] are 120 nM and 0.075 nM.

For the origin of these results see patent US9403830B2, “Inhibitors of leukotriene production” (Boehringer Ingelheim International GmbH, priority 2012, dated 2016).
